Read-outs that look alike come from different tables or passages of the source.
Tests used:
[1] = test system: HeLa cells; experiment: LDH toxicity assay; type: cell-based; conditions: 8-h exposure, with or without serum
Experimental: Cytotoxicity was assayed by determination of lactate dehydrogenase (LDH) activity. HeLa cells were seeded in 96 well plates as described previously (11) Asynchronously growing cells were treated in the presence or absence of MiTMAB or the indicated Dyngo compound in the presence and absence of FCS at the indicated concentration for 8h. The supernatant (50 μL) was added to 100 μL of LDH assay reagent (Sigma- Aldrich) and the reaction was allowed to develop for 20 min. Absorbance was measured at 490 nm and 690 nm (plate background absorbance). Values were normalized to drug/media background value and toxicity was calculated as a % of a 100% lysed cell control.

[2] = biological target: T1, clathrin heavy chain binding to amphiphysin 1 (Homo sapiens, UniProt Q00610); experiment: ELISA-based clathrin binding assay; conditions: up to 300 μM
T1 construct: recombinant GST-tagged clathrin heavy chain TD (amino acids 1-364); made in house; host or cells: bacteria
T1 sequence (Q00610 1-364): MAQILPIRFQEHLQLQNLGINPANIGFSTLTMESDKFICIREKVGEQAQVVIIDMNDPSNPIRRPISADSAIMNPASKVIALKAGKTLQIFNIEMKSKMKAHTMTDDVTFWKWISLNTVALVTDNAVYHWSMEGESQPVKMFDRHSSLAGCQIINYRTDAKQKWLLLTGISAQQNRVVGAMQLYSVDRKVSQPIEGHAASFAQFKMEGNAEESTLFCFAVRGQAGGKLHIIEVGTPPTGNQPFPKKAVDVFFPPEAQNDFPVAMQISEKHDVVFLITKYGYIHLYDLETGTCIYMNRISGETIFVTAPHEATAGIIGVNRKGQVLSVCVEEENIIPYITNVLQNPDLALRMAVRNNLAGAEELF
Experimental: The assay for the interaction of amphiphysin with either clathrin or AP2 was based on our previous report (11). Bacterially expressed recombinant purified His6-tagged amphiphysin 1 PRD+CLAP domains (amino acids 250-578) in screening buffer (20 mM HEPES, pH 7.4, 50 mM NaCl, 1 mM DTT, 1 mM PMSF) was added to a 384 well ELISA plate (high-binding PS Microplate, Greiner Bio-One) and bound to the plastic at room temperature for 1 hr. Non-specific binding was reduced by overnight incubation with 50 µL blocking buffer (20 mM HEPES, pH 7.4, 50 mM NaCl, 1 mM PMSF, 2 % BSA, 2.5 % skim milk) at 4 °C. Following extensive washes (with 20 mM HEPES, pH 7.4, 50 mM NaCl, 0.05 % Tween 20), chemical compounds diluted in DMSO (10 µL) were added and incubated together with bacterially expressed recombinant GST-tagged clathrin heavy chain TD (amino acids 1-364) or GST-AP-2 α-appendage (amino acids 702–938) for 1 hr at room temperature in screening buffer. This incubation was in the presence of test compounds diluted in 1% DMSO or 1% DMSO alone as a control. After 3 washes, horseradish peroxidase-coupled anti-GST antibodies were added in screening buffer and the plate incubated for 15 min at room temperature. Following additional washes, 50 µL TMB (3,3′,5,5′-tetramethylbenzidine) (Pierce Biotechnology) chromogenic substrate of horseradish peroxidase was added and the plate was incubated for 20 min before the reaction was terminated by adding 50 µL 1 N sulfuric acid to produce a yellow colour. The amount of bound protein was determined by spectrophotometric measurement in a plate reader in triplicates. Relative binding was calculated as a percentage of the DMSO control.

[3] = biological target: T2, human serum albumin (Homo sapiens, UniProt P02768); experiment: Plasma protein binding on immobilized human serum albumin column; type: in vitro ADME; conditions: immobilized HSA column
T2 construct: purchased ChromTech Chiral‐HSA, 50 × 3.0 mm, 5 µm
T2 sequence (P02768 25-609): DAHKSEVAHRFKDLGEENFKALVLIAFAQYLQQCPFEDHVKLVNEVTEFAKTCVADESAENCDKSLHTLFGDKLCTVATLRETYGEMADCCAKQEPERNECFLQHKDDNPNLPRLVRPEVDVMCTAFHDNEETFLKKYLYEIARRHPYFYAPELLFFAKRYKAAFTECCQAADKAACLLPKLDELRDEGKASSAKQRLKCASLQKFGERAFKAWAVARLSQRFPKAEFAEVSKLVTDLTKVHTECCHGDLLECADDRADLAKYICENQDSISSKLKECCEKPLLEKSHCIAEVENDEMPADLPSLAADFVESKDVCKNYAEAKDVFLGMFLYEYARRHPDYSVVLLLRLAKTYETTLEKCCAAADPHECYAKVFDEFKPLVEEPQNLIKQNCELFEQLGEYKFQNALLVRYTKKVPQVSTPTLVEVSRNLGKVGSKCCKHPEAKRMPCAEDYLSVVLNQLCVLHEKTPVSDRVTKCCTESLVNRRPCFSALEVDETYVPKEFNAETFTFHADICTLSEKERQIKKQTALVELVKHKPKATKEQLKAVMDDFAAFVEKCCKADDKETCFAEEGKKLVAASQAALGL
Source text: Plasma protein binding was estimated using an immobilized human serum albumin column (ChromTech Chiral‐HSA, 50 × 3.0 mm, 5 µm) with gradient elution based on a previously published method 56.

[4] = test system: HeLa cells; experiment: Trypan blue exclusion cell viability and proliferation assay; type: cell-based; conditions: 20 h exposure, with or without serum
Experimental: Cell viability and membrane integrity was assessed by the Trypan Blue exclusion assay. Cells were seeded into 10 cm dish at a density of 1 × 10^5 cells per dish. […] This was carried out in the presence and absence of FBS.

[5] = test system: rat brain synaptosomes; experiment: Synaptic vesicle endocytosis: FM4-64 uptake in synaptosomes; conditions: read-out: SVE IC50
[6] = test system: Tfn-A594 uptake in U2OS cells; experiment: Automated quantitative CME assay: Tfn-A594 uptake; type: cell-based; conditions: for IC50: Homo sapiens; for recovery of normal non-neuronal CME after wash out: 10 μM for 30 min; for fold less potent CME inhibition in presence of serum protein: 5 or 10% FBS or 1% BSA versus none
Experimental: To determine whether the Dyngo compounds are widespread cell‐permeable and endocytosis inhibitors, CME of fluorescent Tfn was compared in an automated quantitative endocytosis assay in U2OS cells. The assay consisted of over 1200 cells under serum‐free conditions; after preincubation with each analog for 30 min the uptake of fluorescent Tfn was measured. We refer to this endocytosis as non‐neuronal CME to distinguish it from CME of synaptic vesicles in presynaptic terminals of neurons, which is referred to as synaptic vesicle endocytosis (SVE). In these cells, Tfn uptake is presumed to be mediated by dynamin II, because this is the only isoform of dynamin that they express, as determined by western blot (Figure S6). […] There was no apparent correlation between in vitro and in‐cell activity, with potent dynamin‐active compounds like 1a and 14a having no effect on non‐neuronal CME (Table 1). This might be explained by low membrane permeability of these analogs, their cellular metabolism or rapid cellular efflux mechanisms.
Quantitative analysis of the inhibition of Alexa 594‐Tfn endocytosis in U2OS cells was performed on large numbers of serum‐starved cells as described 10. Synaptic vesicle recycling in cultured CGNs was monitored using FM1‐43 as described 57 (see Supporting Information). Dynamin‐independent endocytosis was measured using internalization of CT in NIH3T3 cells (using Tfn as a control) as described previously 58 with minor changes (see Supporting Information). The average number of cells for each data point was ˜1200. IC50 values were calculated using GraphPad Prism 5 and data were expressed as mean ± 95% confidence interval (CI) for three wells and ˜1200 cells.

[7] = Tfn-A594 uptake, U2OS, 30-min preincubation, serum-free, read-out: CME IC50
[8] = U2OS, 1 h incubation, 0.1% BSA, read-out: CME IC50, 0.1% BSA
[9] = U2OS, 1 h incubation, 1% BSA, read-out: CME IC50, 1% BSA
[10] = U2OS, 1 h incubation, 1% FBS, read-out: CME IC50, 1% FBS
[11] = U2OS, 1 h incubation, 5% FBS, read-out: CME IC50, 5% FBS
[12] = U2OS, 1 h incubation, 10% FBS, read-out: CME IC50, 10% FBS
[13] = U2OS, 1 h incubation, absence of FBS or BSA, read-out: CME IC50, 1 h
[14] = then wash out up to 1 h / 60 min

Question: For `O=C(N/N=C/c1ccc(O)c(O)c1)c1cc2ccccc2cc1O` [Dynasore, (E)-N'-(3,4-Dihydroxybenzylidene)-3-hydroxy-2-naphthohydrazide], which “generalized cytotoxicity by LDH activity” value [1] is on record?
Answer: did not exhibit generalized cytotoxicity

Question: What about the “inhibition of clathrin heavy chain binding to amphiphysin 1” value [2] of the same compound?
Answer: None of the compounds inhibited this interaction

Question: And the “bound to human serum albumin” value [3]?
Answer: 98.8 % bound

Question: And the “cell membrane integrity / viability by trypan blue exclusion” value [4]?
Answer: do not affect cell viability

Question: And the IC50 [5]?
Answer: 184 µM

Question: And the IC50 [6, 7]?
Answer: 34.7 ± 5.1 µM

Question: And the IC50 [6, 8]?
Answer: 277 µM

Question: What about the IC50 [6, 9] of the same compound?
Answer: 235 µM

Question: What about the IC50 [6, 10] of the same compound?
Answer: 57.8 µM

Question: And the IC50 [6, 11]?
Answer: 650 µM

Question: What about the IC50 [6, 12] of the same compound?
Answer: 532 µM

Question: And the IC50 [6, 13]?
Answer: 22.2 ± 6 µM

Question: Which results are given for `O=C(N/N=C/c1cccc(O)c1O)c1cc2ccccc2cc1O` [6a, (E)-N'-(2,3-Dihydroxybenzylidene)-3-hydroxy-2-naphthohydrazide]?
Answer: generalized cytotoxicity by LDH activity [1]: did not exhibit generalized cytotoxicity; inhibition of clathrin heavy chain binding to amphiphysin 1 [2]: None of the compounds inhibited this interaction; bound to human serum albumin [3]: 99.7 % bound; cell membrane integrity / viability by trypan blue exclusion [4]: do not affect cell viability; IC50 [5]: 70.1 µM; recovery of normal non-neuronal CME after wash out [6, 14]: 70%; fold less potent CME inhibition in presence of serum protein [6]: at least 20 fold; IC50 [6, 7]: 5.8 ± 0.8 µM; IC50 [6, 8]: 46 µM; IC50 [6, 9]: 281 µM; IC50 [6, 10]: 16.5 µM; IC50 [6, 11]: 78 ± 7 µM; IC50 [6, 12]: 108 ± 15 µM; IC50 [6, 13]: 3.3 ± 0.6 µM; times more potent than dynasore in CME assay ([6]; same conditions, U2OS Tfn uptake): six times more potent

Question: For `O=C(N/N=C/c1cc(O)c(O)cc1O)c1cc2ccccc2cc1O` [4a, (E)-3-Hydroxy-N'-(2,4,5-trihydroxybenzylidene) -2-naphthohydrazide], which “generalized cytotoxicity by LDH activity” value [1] is on record?
Answer: did not exhibit generalized cytotoxicity

Question: And the “inhibition of clathrin heavy chain binding to amphiphysin 1” value [2]?
Answer: None of the compounds inhibited this interaction

Question: And the “bound to human serum albumin” value [3]?
Answer: 99.4 % bound

Question: What about the “cell membrane integrity / viability by trypan blue exclusion” value [4] of the same compound?
Answer: do not affect cell viability

Question: What about the IC50 [5] of the same compound?
Answer: 26.8 µM

Question: What about the “recovery of normal non-neuronal CME after wash out” value ([6]; then 10 min after removal) of the same compound?
Answer: 70%

Question: What about the “recovery of normal non-neuronal CME after wash out” value [6, 14] of the same compound?
Answer: over 80%

Question: And the “fold less potent CME inhibition in presence of serum protein” value [6]?
Answer: at least 20 fold

Question: And the IC50 [6, 7]?
Answer: 5.7 ± 1 µM

Question: What about the IC50 [6, 8] of the same compound?
Answer: 44 µM

Question: What about the IC50 [6, 9] of the same compound?
Answer: 83 ± 12 µM

Question: And the IC50 [6, 10]?
Answer: 23.7 ± 3.2 µM

Question: And the IC50 [6, 11]?
Answer: 102 µM

Question: And the IC50 [6, 12]?
Answer: 115 ± 7.5 µM

Question: What about the IC50 [6, 13] of the same compound?
Answer: 6.3 ± 3.6 µM

Question: What about the “preincubation time required for complete abolition of Tfn uptake” value ([6]; U2OS, 10 μM) of the same compound?
Answer: 30 min

Question: What about the “shortest preincubation at which inhibition of CME was observed” value ([6]; U2OS, 10 μM) of the same compound?
Answer: 5 min
